Measured values taken from ChEMBL document CHEMBL1687877, “Tripeptide motifs in biology: targets for peptidomimetic design” (J Med Chem, 2011).
Where a SMILES comes first, the peptide text is derived from it. Bridges are numbered along the chain shown (N, C = ends).

Tests used:
[1] = molecular target: D(2) dopamine receptor (Homo sapiens) (UniProt P14416); assay: Agonist activity at human dopamine D2 receptor at 10 nM; assay type: functional
[2] = Inhibition of bacterial DNA polymerase beta association with DNA polymerase alpha
[3] = Inhibition of bacterial DNA polymerase beta association with DNA polymerase delta
[4] = Induction of neurite outgrowth in rat CGN cells at 7.3 uM; assay type: functional
[5] = molecular target: T1, Cadherin-2 (Homo sapiens, UniProt P19022); assay: Antagonist activity at N-cadherin; assay type: functional
T1 sequence (P19022 whole entry): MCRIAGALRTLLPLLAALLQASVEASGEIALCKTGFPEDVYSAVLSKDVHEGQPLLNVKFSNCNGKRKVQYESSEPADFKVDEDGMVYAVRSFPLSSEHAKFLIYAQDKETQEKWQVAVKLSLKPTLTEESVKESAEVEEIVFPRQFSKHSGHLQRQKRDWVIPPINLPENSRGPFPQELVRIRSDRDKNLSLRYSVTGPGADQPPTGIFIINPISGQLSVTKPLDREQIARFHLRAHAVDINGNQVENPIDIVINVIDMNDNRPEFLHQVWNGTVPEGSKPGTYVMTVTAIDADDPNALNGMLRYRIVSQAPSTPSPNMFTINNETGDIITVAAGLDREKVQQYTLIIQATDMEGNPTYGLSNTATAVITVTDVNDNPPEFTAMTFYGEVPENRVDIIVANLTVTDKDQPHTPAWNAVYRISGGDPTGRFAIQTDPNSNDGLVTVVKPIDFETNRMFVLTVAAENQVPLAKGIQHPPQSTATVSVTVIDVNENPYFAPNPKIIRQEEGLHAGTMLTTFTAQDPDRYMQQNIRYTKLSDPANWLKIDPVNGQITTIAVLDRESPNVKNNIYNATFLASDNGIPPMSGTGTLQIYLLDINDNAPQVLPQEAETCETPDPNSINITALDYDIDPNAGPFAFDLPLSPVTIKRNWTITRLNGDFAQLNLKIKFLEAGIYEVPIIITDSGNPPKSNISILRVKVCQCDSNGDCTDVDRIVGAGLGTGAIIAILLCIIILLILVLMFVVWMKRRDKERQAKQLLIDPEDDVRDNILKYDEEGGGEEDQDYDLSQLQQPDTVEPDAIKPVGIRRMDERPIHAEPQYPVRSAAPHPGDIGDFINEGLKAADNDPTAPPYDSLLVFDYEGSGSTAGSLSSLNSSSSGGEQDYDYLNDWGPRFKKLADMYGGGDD

D(2) dopamine receptor (Homo sapiens), sequence (P14416 whole entry): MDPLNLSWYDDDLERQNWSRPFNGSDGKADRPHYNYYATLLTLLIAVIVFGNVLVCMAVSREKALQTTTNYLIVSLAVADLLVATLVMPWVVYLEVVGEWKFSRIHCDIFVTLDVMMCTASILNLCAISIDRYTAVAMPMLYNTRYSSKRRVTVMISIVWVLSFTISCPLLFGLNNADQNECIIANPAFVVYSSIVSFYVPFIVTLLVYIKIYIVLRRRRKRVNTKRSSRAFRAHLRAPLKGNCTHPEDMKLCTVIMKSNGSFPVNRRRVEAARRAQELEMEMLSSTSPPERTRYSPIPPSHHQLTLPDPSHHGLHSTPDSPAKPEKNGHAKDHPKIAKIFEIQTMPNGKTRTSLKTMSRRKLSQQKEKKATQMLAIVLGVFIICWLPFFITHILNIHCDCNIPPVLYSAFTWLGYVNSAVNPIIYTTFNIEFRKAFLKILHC

IC50 [2] [µM] | IC50 [3] [µM] | SMILES | other results
– | – | N[C@@H](Cc1ccccc1)C(=O)NC1C(=O)N(CC(=O)O)C[C@H]1CC(=O)O (some centres not stated) | Activity [1]: 146%
270 | 90 | CCC/C(=N\OCc1ccc(-c2ccccc2)cc1)C1C(=O)CC(C)(C2OCC(C)(C)CO2)OC1=O (configuration not stated) | –
350 | 290 | CCC/C(=N\OC/C(Cl)=C/c1ccc(Cl)cc1)C1C(=O)CC(C)(C)CC1=O | –
– | – | CC[C@H](C)[C@@H]1NC(=O)[C@H](CC(=O)O)NC(=O)[C@H](C(C)C)NC(=O)[C@H](C)NC(=O)[C@H](Cc2cnc[nH]2)NC(=O)CNC(=O)[C@H](CC(N)=O)NC(=O)[C@H]([C@@H](C)CC)NC(=O)[C@H](CC(=O)O)NC(=O)[C@H](C(C)C)NC(=O)[C@H](C)NC(=O)[C@H](Cc2cnc[nH]2)NC(=O)[C@@H](NC(C)=O)CSSC[C@@H](C(N)=O)NC1=O (Ac-CHAVDINGHAVDIC-NH2; disulfide 1-14) | Activity [4]: 70%
– | – | CC(=O)N[C@H]1CSSC[C@@H](C(N)=O)NC(=O)[C@H](CC(=O)O)NC(=O)[C@H](C(C)C)NC(=O)[C@H](C)NC(=O)[C@H](Cc2cnc[nH]2)NC1=O (Ac-CHAVDC-NH2; disulfide 1-6) | IC50 [5]: 5 µM
